Measured values as given in patent publication US10350315B2, “Quinoline-3-carboxamide compounds and their use in diagnosis” (Westfaelische Wihelms-Universitaet Muenster, priority 2014, dated 2019).

Tests used:
S100A9 [1] = target: T1, S100A9 (Homo sapiens, UniProt P06702); assay: Binding constant to coated S100A9 by fluorimetric measurement (one site saturation model); conditions: human S100A9 homodimer coated, 1 h at 4° C.
T1 sequence (P06702 1-114): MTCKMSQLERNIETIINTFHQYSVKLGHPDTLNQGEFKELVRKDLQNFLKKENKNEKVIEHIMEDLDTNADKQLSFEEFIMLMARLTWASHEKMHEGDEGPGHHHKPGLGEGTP
Protocol: (§1) FIG. 15: Binding of Cy5.5-CES271 to human and murine S100A9. Estimation of the binding constant of Cy5.5-CES271 to human (A) and murine (B) S100A9. The constant was calculated using the one site saturation regression model. Each dot represents the mean value of four independent experiments.
(§2) The binding constant of Cy5.5-CES271 to murine and human S100A9 was determined by fluorimetric measurements. 0.3788 μM S100A9 (5 μg ml^−1 of homodimer S100A9) solved in 50 μl PBS was coated to the bottom of a 96-well plate and served as capturing molecule. For each S100A9 coated well a control well was used with 50 μl PBS alone. After a washing step, unspecific binding sites were blocked by PBS/5% skim milk powder. Cy5.5-CES271 was added at increasing concentrations. After 1 h incubation at 4° C., the supernatants were removed and the fluorescence intensity was measured with a fluorimeter. Non-linear regression analysis was performed with a one site saturation model, to calculate the binding constant of Cy5.5-CES271 to either murine or human S100A9. […] A strong binding affinity of the tracer to S100A9 could be observed that is not affected by the attachment of Cy5.5 to CES271.

murine S100A9 = target: T2, murine S100A9 (Mus musculus, UniProt P31725); assay: as above; conditions: murine S100A9 homodimer coated, 1 h at 4° C.
T2 sequence (P31725 1-113): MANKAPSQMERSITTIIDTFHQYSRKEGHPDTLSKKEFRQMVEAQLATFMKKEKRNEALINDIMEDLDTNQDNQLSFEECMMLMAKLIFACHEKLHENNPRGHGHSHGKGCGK
Protocol: as §1, §2

[2] = Biodistribution of Cy5.5-CES271 in healthy Balb/c mice (fluorescence intensity in organs); type: in vivo
Protocol: FIG. 16: Biodistribution of Cy5.5-CES271 in healthy Balb/c mice. The tracer was intravenously injected at a dose of 2 nmol per mouse.
The biodistribution of Cy5.5-CES271 and [^99mTc]FEB054 injected to healthy Balb/c mice was analysed by the measurement of fluorescence intensity in various organs. […] The tracer was injected at a dose of 2 nmol per mouse. […] This kinetics, that is different to previously published antibody based tracer anti-S100A9-Cy5.5^7 kinetics favors Cy5.5-CES271 for imaging of organs neighboring the liver like the lung or the heart.

S100A9 [3] = target: T3, S100A9 (Mus musculus, UniProt P31725); assay: Atherosclerosis mouse model (HypoE, HFC diet), FRI of the explanted aorta; type: in vivo, SR-BI−/−/apoER61h/h mice (HypoE); conditions: 10 days HFC diet, 2 h p.i.
T3 construct: from tissue; host or cells: living mice (inflamed ear, joints) and explanted mouse heart, aorta and lungs
T3 sequence (P31725 2-113 limits assumed): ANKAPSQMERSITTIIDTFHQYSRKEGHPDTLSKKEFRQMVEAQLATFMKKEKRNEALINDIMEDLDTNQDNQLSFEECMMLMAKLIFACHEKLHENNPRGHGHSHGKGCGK
Protocol: FIG. 8: Accumulation of Cy5.5-CES271 in a mouse model of atherosclerosis in a HypoE mouse, 10 days on HFC diet.
Atherosclerosis is an inflammatory disease of the vessel wall. SR-BI^−/−/apoE^R61 h/h-mice (HypoE) are known to develop atherosclerotic lesions especially when set on a high fat and high choleresterol diet (HFC). Typical predeliction site is the aortic arch. 12-14 week old mice were set on HFC diet for 10 days. At day 10 of HFC diet Cy5.5-CES271 was injected i.v., the mice were sacrificed two hours p.i., the aortic arches were explanted, and measured ex-vivo by FRI.
The hearts and aorta were fixed overnight in 4% paraformaldehyde and embedded in paraffin. Sections measuring 4 μm in thickness were analyzed. For immunohistochemistry, paraffin skin sections (4 μm) were dewaxed, blocked with 10% fetal bovine serum, and incubated with rabbit anti-S100A9 or MAC-3 antibodies for 1 h at room temperature followed by a goat-anti-rabbit biotinylated antibody and 3,3′ diaminobenzidine (DAB).

S100A9 [4] = target: T3, S100A9; assay: LPS-induced acute lung injury (ALI) mouse model, FRI of explanted lungs; type: in vivo, mice
Protocol: FIG. 22: Accumulation of Cy5.5-CES271 in a mouse model of acute lung inflammation (ALI). (A) At different time points after the intranasal application of either 10 pg or 50 pg LPS the local and systemic levels of S100A8/S100A9 are compared to control animals. Exemplary paraffin sections of inflamed and healthy lung tissue, taken at 8 h after LPS (10 pg) application were stained for S100A9-expression. Histological data of control (upper image) and lung inflammation (lower image) confirmed local expression of these proteins. […] 50 pg LPS treated mice injected with glycine saturated Cy5.5 served as perfusion controls. (C) S100A8/S100A9 serum levels of LPS treated and control animals are correlated with the measured Mean Fluorescence Intensity over the lungs (R^2=0.69; n=19; p<0.001).
LPS-induced lung inflammation was elicited via intranasal application of 50 pg or 10 pg of LPS. LPS from Escherichia coli 055:B5 was obtained from Sigma-Aldrich. Directly after the administration of LPS 2 nmol of tracer were injected intravenously. Glycine saturated Cy5.5 served as a perfusion control for CES271-Cy5.5, while Cy5.5-labelled rabbit IgG without relevant specificity served as a control for aS100A9-Cy5.5. Mice were either assigned to fluorescence mediated tomography (FMT) to fluorescence reflectance imaging (FRI). For FRI imaging, the mice were sacrificed at the indicated time points. Afterwards, BALF was obtained and the lungs were fixed with 1% low melt aggarose.
2D FRI lung imaging was performed using the Bruker FX Pro Imaging Station (Bruker Corporation). Excitation light was set to 630 nm using an appropriate bandpass filter. Emission at 700 nm was recorded using a filtre-equipped high-sensitivity (4-million-pixel) cooled charge-coupled device camera. Acquisition time was 5 s for each image.
Mice were intravenously injected with Cy5.5-labelled CES271 (CES271-Cy5.5). The animals underwent optical imaging at various time points after injection. In our blocking experiments each mouse received 2 pmol CES271 1 h before 2 nmol of CES271-Cy5.5 were injected. […]

[5] = 2 nmol per mouse i.v., 1 and 3 h after injection
[6] = between 1 h and 3 h post injection, 2 nmol i.v.

Substance: 3-ethyl-2((1E,3E,5E)-5-(3-(1-(5-ethyl-4-hydroxy-1-methyl-2-oxo-1,2-dihydroquinolin-3-yl)-1,15-dioxo-2-phenyl-5,8,11-trioxa-2,14-diazanonadecan-19-yl)-1,1-dimethyl-6,8-disulfonato-1H-benzo[e]indol-2(3H)-ylidene)penta-1,3-dien-1-yl)-1,1-dimethyl-1H-benzo[e]indol-3-ium-6,8-disulfonate [Cy5.5-CES271]
- Kd (S100A9 [1]): 2060 nM
- Kd (murine S100A9): 2660 nM
- Route of elimination [2, 5]: mainly driven by renal excretion
- Tissue availability [2, 5]: good tissue availability
- Tracer concentration in heart, spleen, muscle, brain ([2]; 1 h compared with 3 h post injection, 2 nmol i.v.): at the same level
- Tracer concentration in kidney, liver and lung ([2]; 3 h vs 1 h post injection, 2 nmol i.v.): higher tracer concentrations
- Change of tracer concentration in the blood [2, 6]: decrease
- Change of tracer concentration in the urine [2, 6]: increases significantly
- Kinetics compared to antibody based tracers ([2]; mouse, in vivo): much faster kinetics
- Accumulation in plaque lesions of the explanted aorta (S100A9 [3]): accumulation
- Tracer accumulation in explanted lungs of LPS treated mice (S100A9 [4]; 3 and 6 hours after parallel LPS/tracer application, 50 pg LPS intranasal, 2 nmol i.v., n=3, p<0.01): specific tracer accumulation could clearly be delineated
- Ratio of tracer accumulation in the lung parenchyma, LPS treated mice (S100A9 [4]; 6 h post induction): up to 2.5
- Correlation (R^2) of S100A8/S100A9 serum levels with Mean Fluorescence Intensity over the lungs (S100A9 [4]; n=19, p<0.001): 0.69
